Source: patent US5733890A, “Adenylate analogs as potent anti-herpes virus agents” (National Science Council, priority 1996, dated 1998)
Converted amounts (≈) assume the structure as drawn. Read-outs that look alike come from different tables or passages of the source.

Key:
Hela cell = assay: Toxicity: morphological changes in Hela cells; assay type: cell-based; conditions: in comparison with Ara-A 37
Procedure: (§1) We tested the synthesized compounds for their inhibition of cytopathogenicity of herpes simplex type 1 virus (HSV-1), herpes simplex type 2 virus (HSV-2), and varicella-zoster virus (VZV) in Hela cell culture. These compounds include VI, 12, 13, 40, 42, a mixture of VI and 13 (1:1), ara-A 37, and a mixture of 13 and 37 (1:1). Toxicity of these compounds was evaluated by their ability to cause morphological changes in cells at different concentrations.
(§2) ^b Concentration of the compound required to cause microsopically
(§3) visible change or disruption in about 50% of the cell sheet; and […]

[1] = Toxicity: morphological changes in Hela cells; assay type: cell-based; conditions: human; Hela cells; average of triplicate determinations; read-out: IC50 Hela cell (concentration required to cause microscopically visible change or disruption in about 50% of the cell sheet)
Procedure: as §1, §2, §3

[2] = system: varicella-zoster virus (VZV); assay: Inhibition of cytopathogenicity of VZV in Hela cell culture; assay type: cell-based; conditions: for IC50: read-out: IC50 VZV (YS)
Procedure: as §1

[3] = system: herpes simplex type 2 virus (HSV-2); assay: Inhibition of cytopathogenicity of HSV-2 in Hela cell culture; assay type: cell-based; conditions: for IC50: read-out: IC50 HSV-2 (G)
Procedure: as §1

[4] = system: herpes simplex type 1 virus (HSV-1); assay: Inhibition of cytopathogenicity of HSV-1 in Hela cell culture; assay type: cell-based; conditions: for IC50: read-out: IC50 HSV-1 (KOS)
Procedure: as §1

[5] = target: T1, calf mucosal adenosine deaminase (EC 3.5.4.4) (Bos taurus, UniProt P56658); assay: Competitive inhibition of adenosine deaminase; assay type: biochemical; conditions: for type of inhibition of adenosine deaminase / Ki: Ara-A 37 used as substrate; for Ki: Kaplan method
T1 construct: calf mucosal adenosine deaminase; from tissue; host or cells: calf mucosa
T1 sequence (P56658 1-363): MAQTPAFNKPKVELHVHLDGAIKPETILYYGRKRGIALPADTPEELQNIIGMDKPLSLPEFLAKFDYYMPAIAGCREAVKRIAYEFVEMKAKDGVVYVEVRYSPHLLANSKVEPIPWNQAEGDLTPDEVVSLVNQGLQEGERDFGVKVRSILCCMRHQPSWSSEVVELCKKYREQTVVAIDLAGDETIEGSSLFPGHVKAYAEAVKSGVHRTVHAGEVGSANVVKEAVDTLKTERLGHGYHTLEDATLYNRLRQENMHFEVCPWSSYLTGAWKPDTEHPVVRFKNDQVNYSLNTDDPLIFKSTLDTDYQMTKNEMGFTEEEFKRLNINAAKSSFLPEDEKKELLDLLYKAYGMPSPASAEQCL
From the text: (§4) By following an established procedure [Ogilvie, K. K.; Nguyen-Ba, N.; Gillen, M. F.; Radatus, B. K.; Cheriyan, U. O.; Hanna, H. R.; Smith, K. O.; Galloway, K. S. Synthesis of A Purine Acyclonucleoside Series Having Pronounced Antiviral Activity. The Glyceropurines. Can. J. Chem. 1984, 62, 241-252.], we determined the rates of deamination of VI, 13, 37, 40, and 42 in the presence of calf mucosal adenosine deaminase (EC 3.5.4.4) in buffer solutions.

[6] = target: T1, calf mucosal adenosine deaminase (EC 3.5.4.4); assay: Deamination kinetics of compounds as substrates of adenosine deaminase; assay type: biochemical; conditions: for adenosine deaminase substrate / deamination by / resistance to adenosine deaminase: in words; for rel Vmax: relative, 37 = 1; for complex formation with adenosine deaminase: Table 1; for deamination by / resistance to adenosine deaminase: in vitro
From the text: as §4

[7] = Partition coefficient (lipophilicity), 1-pentanol / phosphate buffer; conditions: P = [Substrate]1-pentanol/[Substrate]H2O
Procedure: The layers were separated, and their concentrations were determined by an UV spectrophotometer.
^a Partition coefficients were calculated as follows:
P = [Substrate]1pentanol /[Substrate]H.sbsb.2O.

[8] = Solubility in H2O (phosphate buffer); conditions: for water solubility (in words): from Table 2; for solubility in H2O: phosphate buffer 0.10M, 20 h, UV absorbance; for solubility at 20 h: 0.10 m phosphate buffer, aqueous buffer
Procedure: Each compound (70 mg) listed in Table 2 was agitated in a 25-mL volumetric flask with phosphate buffer (0.10M, 5.0 mL) for 20 h. This solution was filtered from undissolved solid through a sintered glass funnel (4.0-5.5 mesh ASTM) and the concentration of the solution was determined by UV absorbance (Table 2).

acute type B hepatitis = conditions: background; cited from earlier work
[9] = background; cited from earlier work
viral replication = conditions: background; cited from earlier work
adenosine deaminase = conditions: background; cited from earlier work
HSV-1, HSV-2 and VZV = assay: Anti-herpes activity in Hela cell culture (all viruses of Table 3); assay type: cell-based; conditions: for effect on antiviral activity by mixing with compound 13: mixed with compound 13 (Table 3)
Procedure: as §1

[10] = Human alphaherpesvirus 3, strain YS, Hela cell culture, average of triplicate determinations
[11] = Human alphaherpesvirus 2, strain G, Hela cell culture, average of triplicate determinations
[12] = Human alphaherpesvirus 1, strain KOS, Hela cell culture, average of triplicate determinations

Compound | cellular toxicity (in words) (Hela cell) | CC50 [1] [µg/mL] | antiviral activity against VZV (in words) ([2]; Hela cell culture) | antiviral activity against HSV-2 (in words) ([3]; Hela cell culture) | antiviral activity against HSV-1 (in words) ([4]; Hela cell culture) | type of inhibition of adenosine deaminase [5] | Ki [5] [µM] | adenosine deaminase substrate [6] | rel Vmax [6] | IC50 [2, 10] [µg/mL] | IC50 [3, 11] [µg/mL] | log P [7] | water solubility (in words) [8] | solubility in H2O [8] [µg/mL] | IC50 [4, 12] [µg/mL] | complex formation with adenosine deaminase [6] | solubility at 20 h [8] [µg/mL] | inhibition of viral replication (viral replication) | effect on antiviral activity by mixing with compound 13 (HSV-1, HSV-2 and VZV) | deamination by / resistance to adenosine deaminase [6] | also measured
CCOP(=O)(O)CCOCn1cnc2c(N)ncnc21.N [Compound 12, Ammonium Ethyl [2-[(Adenin-9-yl)methoxy]ethyl]phosphonate] | lower cellular toxicity | 176 | exhibit antiviral activity | exhibit antiviral activity | exhibit antiviral activity |  |  |  |  |  |  |  |  |  |  |  |  |  |  |  | IC50 ([2]; Human alphaherpesvirus 3, HeLa): 25 µg/mL; IC50 ([3]; Human alphaherpesvirus 2, HeLa): 13.8 µg/mL; IC50 ([4]; Human alphaherpesvirus 1, HeLa): 11.3 µg/mL
Nc1ncnc2c1ncn2COCCP(=O)(O)O [Compound 13, 2-[(Adenin-9-yl)methoxy]ethylphosphonic Acid] | lower cellular toxicity | 215 (≈ 787 µM) | exhibit antiviral activity | exhibit antiviral activity | exhibit antiviral activity | competitive inhibition | 18.2 | adenosine deaminase substrates | 1.49 × 10^-6 | 16 (≈ 58.6 µM) | 5.86 (≈ 21.5 µM) | 0.07 | higher water solubility | 13640 (≈ 49900 µM) | 3.98 (≈ 14.6 µM) |  |  |  |  |  | inhibition of adenosine deaminase (in words) ([5]; Table 1): inhibits adenosine deaminase; efficiency as inhibitor of adenosine deaminase versus acyclonucleoside VI ([5]; compared with VI): acted more efficiently than acyclonucleoside VI; Vmax compared with that of VI (times less) ([6]; versus VI): ~ 10^-4 times less
Nc1ncnc2c1ncn2[C@@H]1O[C@H](CO)[C@@H](O)[C@@H]1O [Compound 37, 9-(β-D-arabinofuranosyl)adenine, reference compound] |  | 98.8 (≈ 370 µM) |  |  |  |  |  |  | 1 | > 128 | > 128 | -0.47 |  |  | 10.8 (≈ 40.4 µM) | can form a complex | 400 (≈ 1500 µM) | can inhibit viral replication | synergistic effect |  | potency in treating a patient having acute type B hepatitis (acute type B hepatitis): potent; lipophilicity (in words) [9]: poor lipophilicity; conversion in vivo to hypoxanthine (Ara-Hx) via deamination by adenosine deaminase (adenosine deaminase): converted in vivo to hypoxanthine (Ara-Hx)
Nc1ncnc2c1ncn2COCCP(=O)(O)O[C@H]1[C@H](O)[C@H](n2cnc3c(N)ncnc32)O[C@@H]1CO [Compound 40, 9-(β-D-Arabinofuranosyl)adenine-3'-[[2-(Adenin-9-ylmethoxy)ethyl]phosphonate]] | lower cellular toxicity | 346 (≈ 662 µM) | not active against VZV | exhibit antiviral activity | exhibit antiviral activity |  |  | a substrate of adenosine deaminase | 7.64 × 10^-2 | > 128 | 16.3 (≈ 31.2 µM) | -0.68 | higher water solubility | 2460 (≈ 4710 µM) | 8.97 (≈ 17.2 µM) |  |  |  |  | slow rate of deamination | Vmax less than that of Ara-A 37 ([6]; versus Ara-A 37): 92%
COC(=O)C(C)NP(=O)(CCOCn1cnc2c(N)ncnc21)OC1C(CO)OC(n2cnc3c(N)ncnc32)C1O [Compound 42, 9-(β-D-Arabinofuranosyl)adenine-3'-[(Methoxyalaninyl)[2-(adenin-9-ylmethoxy)ethyl]phosphonates]] | lower cellular toxicity | 215 (≈ 355 µM) | exhibit antiviral activity | exhibit antiviral activity | exhibit antiviral activity |  |  |  |  | 4.82 (≈ 7.93 µM) | 0.88 (≈ 1.45 µM) | 0.87 | higher water solubility |  | 0.38 (≈ 0.625 µM) |  | 8250 (≈ 13600 µM) |  |  | completely resisted deamination | Km ([6]; adenosine deaminase substrate, buffer solutions): > 1500 µM; antiviral activity (in words) (HSV-1, HSV-2 and VZV; Table 3): superior antiviral activity
Nc1ncnc2c1ncn2COCCO [VI, Acyclic adenosine, reference compound] |  | 266 (≈ 1270 µM) |  |  |  | competitive inhibition | 142 | adenosine deaminase substrates | 1.52 × 10^-2 | 6.5 (≈ 31.1 µM) | 8.26 (≈ 39.5 µM) | 0.98 |  | 1950 (≈ 9320 µM) | 4.43 (≈ 21.2 µM) | can form a complex |  | can inhibit viral replication | synergistic effect |  | 
